Experimental data reported in patent US20100298448A1, “PENETRATION ENHANCERS FOR FUNGICIDAL AGENTS” (priority 2006, published 2010).

Conditions: apple tree (Golden Delicious variety)
Procedure: In this test, the penetration of active substances through enzymatically isolated cuticles of apple tree leaves was measured.
Leaves which were cut off in the stage of full development of apple trees of the Golden Delicious variety were used. The isolation of the cuticles was effected in a manner such that • first leaf discs marked on the underside with dye and punched out were filled by means of vacuum infiltration with a pectinase solution (0.2 to 2% strength) buffered to a pH between 3 and 4, sodium azide was then added and • the leaf discs thus treated were allowed to stand until disintegration of the original leaf structure and detachment of the noncellular cuticle.
Thereafter, only those cuticles of the upper sides of the leaves which were free of staltoa and hairs were further used. They were washed several times alternately with water and a buffer solution at pH 7. The clean cuticles obtained were finally drawn onto small Teflon plates and smoothed and dried with a gentle air jet.
In the next step, the cuticle membranes thus obtained were placed in stainless steel diffusion cells (=transport chambers) for membrane transport investigations. For this purpose, the cuticles were placed by means of forceps centrally on the silicone grease-coated edges of the diffusion cells and closed with a likewise greased ring. The arrangement was chosen so that the morphological outside of the cuticles faced outwards, i.e. towards the air, while the original inside faced the interior of the diffusion cell. The diffusion cells were filled with water or with a mixture of water and solvent. […]
After the application of the spray liquors, in each case the water was allowed to evaporate, and in each case the chambers were then turned around and were placed in thermostated trays, air having a defined temperature and atmospheric humidity being blown onto the outside of the cuticle. […] The active substance penetration was measured with radioactively marked active substance.

CC(C)(C)C(O)(CCc1ccc(Cl)cc1)Cn1cncn1 (stereo not drawn) [Tebuconazole, tebuconazole]
Penetration* after 5 hours [%]: 2%
Penetration* after 1 day [%]: 8%
Penetration** after 2 days [%]: 15%
